Data as given in patent US20220304307A1, “SYNERGISTIC MIXTURES FOR ARTHROPOD TOXICITY AND REPELLENCY” (University of Florida Research Foundation, Incorporated, priority 2019, published 2022).
Entries after “also recorded” stand apart in the source; their conditions may differ. Where a name gives a salt, the structure may show the parent alone. Read-outs that look alike come from different tables or passages of the source.

Assays:
female Ae. aegypti = experiment: Human arm bite protection assay; assay type: in vivo, Aedes aegypti; details: for MED values Female 10: as E30, volunteer one; for MED values Female 9: as E30, volunteer two; for MED Mean: mean of three human volunteers; for MED values Male 4: minimum amount preventing 99% of bites, treated cloth patch, 1 min in cage, mixtures with TFA 0.047 or TCA 0.094 mg/cm^2
Procedure: A human bite protection assay was performed according to see if the repellency observed in glass tubes extended to bite protection. The assay was run in accordance with that of Tsikolia et al. (Tsikolia M, Bernier UR, Coy M, Chalaire K, Becnel J, Agramonte N, Tabanca N, Wedge D, Clark G, Linthicum K, Swale D, and J. R. Bloomquist J (2013) Insecticidal and fungicidal properties of novel trifluoromethylphenyl amides. Pestic. Biochem. Physiol. 107, 138-147). Treated cloth patches were worn by human volunteers and the number of blood fed mosquitoes was determined after 1 min spent in a cage with 500 (±10%) female Ae. aegypti. Minimum Effective Dosage (MED in mg/cm^2) is the minimum amount required to prevent 99% of bites in three human volunteers (UF IRB #201602334). Synergist ratio (SR)=MED chemical alone/MED chemical+TFA (0.047 mg/cm^2) or TCA (0.094 mg/cm^2).

[1] = test system: Orlando insecticide-susceptible strain of Ae. aegypti (female mosquitoes); experiment: Glass tube spatial repellency assay; assay type: in vivo, Aedes aegypti; details: for repellency EC50 (+TFA): applied as mixture with TFA (50 μg/cm^2); for repellency EC50 (+TFA) / repellency EC50 / effect of TFA on repellency, applied as mixture: 1 hr; for repellency EC50 / spatial repellency in screening / repellency at highest concentration tested (words): compound alone; for synergist ratio SR (EC50 compound alone/EC50 compound+TFA): TFA 50 μg/cm^2 as mixture; for 15 min repellency ratio / 30 min repellency ratio / 1 hr repellency ratio: horizontal tube, 0.5=0% repellency, 0=100% repellency; for effect of TFA on repellency, applied as mixture: TFA 50 μg/cm^2 + EC20 of test compound (permethrin 30 μg/cm^2); for effect of TFA on repellency, applied side-by-side: TFA 50 μg/cm^2 side-by-side, DEET 18 μg/cm^2; for synergism of repellency with citronella: citronella at its EC20 (20 μg/cm^2); for EC50 (95% CL), repellency of TFA esters: 1 hr exposures, Ae. aegypti females; for spatial repellency in screening: 100 μg/cm^2, 1 hr exposure; for repellency at highest concentration tested (words): 1-2 mg/cm^2
Procedure: (§1) The following assay was conducted according to the procedures of Jiang et al., 2019 (Jiang S., Yang L, and Bloomquist J (2019) High-throughput screening method for evaluating spatial repellency and vapor toxicity to mosquitoes. Med. Vet. Entomol.). For assessing behavioral repellency (FIG. 1), sixteen female Aedes aegypti mosquitoes were transferred to a glass tube (12.5 cm long, 2.5 cm outer diameter) with the ends covered with netting. Metofluthrin, bifenthrin, permethrin, pyrethrum, transfluthrin, deltamethrin, esfenvalerate, metofluthrin acid, bifenthrin acid, phenothrin acid, transchryanthemic acid, transfluthrin acid, deltamethrin acid, and fenvalerate acid were each dissolved in 1 mL of acetone and serial dilutions ranging from 30-0.01 μg/ml were made. Circular filter papers (5 cm^2) were saturated with 50 μL of each concentration and allowed 10 min for solvent evaporation. The filter papers were then placed in clear conical polypropylene caps and fixed to the end of the glass tubes. The netting prevented mosquito contact with the filter paper. Tubes were then aligned with a mark denoting the midline and the proportion of mosquitoes on the chemically treated side was scored at 15, 30, and 60 min. At the end of the test, the tube was placed in a cage and the ability of the mosquitoes to fly out of the tube was assessed for 30 min. […] This post-test evaluated whether any non-responding mosquitoes (not repelled) was due to intoxication or disorientation from the test chemical. For vapor toxicity, the assay was identical, except that mosquitoes were kept in the tube for 24 hr without the post-test at 1 hr, and the mortality was recorded at 24 hr.

[2] = test system: insecticide-susceptible Aedes aegypti (Orlando strain) females; experiment: Glass tube vapor toxicity assay (24 hr mortality); details: for 24 hr mort (%): horizontal tube; for mortality at 100 µg/cm2: Aedes aegypti
Procedure: as §1
Synergism ratio (SR)=LC50 pyrethroid/LC50 pyrethroid+EO.

CCCCCCCCCC(C)=O [2-undecanone]
MED values Female 10 (female Ae. aegypti): 0.375 mg/cm^2
MED values Female 9 (female Ae. aegypti): 0.187 mg/cm^2
MED Mean (female Ae. aegypti): 0.219 mg/cm^2
MED values Male 4 (female Ae. aegypti): 0.094 mg/cm^2
repellency EC50 (+TFA) [1]: 5.1 μg/cm^2
repellency EC50 [1]: 59 μg/cm^2
synergist ratio SR (EC50 compound alone/EC50 compound+TFA) ([1]; repellency): 11.6

O=Cc1cccc(Cl)c1 [3-chlorobenzaldehyde]
24 hr mort (%) ([2]; 10 μg/cm^2): 31.3%
24 hr mort (%) ([2]; 100 μg/cm^2): 100.0%
mortality at 100 µg/cm2 ([2]; 0.25 h, read-out: 15 min % mortality): 50%
mortality at 100 µg/cm2 ([2]; 0.5 h, read-out: 30 min % mortality): 75%
mortality at 100 µg/cm2 ([2]; 1 h, read-out: 1 hr % mortality): 100%
15 min repellency ratio ([1]; 10 μg/cm^2): 0.28
30 min repellency ratio ([1]; 10 μg/cm^2): 0.34
1 hr repellency ratio ([1]; 10 μg/cm^2): 0.41

O=Cc1cccc(C(=O)O)c1 [3-formyl benzoic acid]
24 hr mort (%) ([2]; 10 μg/cm^2): 6.3%
24 hr mort (%) ([2]; 100 μg/cm^2): 9.4%
15 min repellency ratio ([1]; 10 μg/cm^2): 0.50
30 min repellency ratio ([1]; 10 μg/cm^2): 0.47
1 hr repellency ratio ([1]; 10 μg/cm^2): 0.47
15 min repellency ratio ([1]; 100 μg/cm^2): 0.53
30 min repellency ratio ([1]; 100 μg/cm^2): 0.56
1 hr repellency ratio ([1]; 100 μg/cm^2): 0.56

O=Cc1cccc(Oc2ccccc2)c1 [3-phenoxybenzaldehyde]
MED values Female 10 (female Ae. aegypti): 0.750 mg/cm^2
MED values Female 9 (female Ae. aegypti): >0.75 mg/cm^2
MED Mean (female Ae. aegypti): >0.75 mg/cm^2
MED values Male 4 (female Ae. aegypti): >0.75 mg/cm^2

CCN(CC)C(=O)c1cccc(C)c1 [DEET, N,N-diethyl-m-toluamide, reference compound]
MED values Female 10 (female Ae. aegypti): 0.011 mg/cm^2
MED values Female 9 (female Ae. aegypti): 0.011 mg/cm^2
MED Mean (female Ae. aegypti): 0.011 mg/cm^2
MED values Male 4 (female Ae. aegypti): 0.011 mg/cm^2
effect of TFA on repellency, applied as mixture [1]: no statistically significant effect
effect of TFA on repellency, applied side-by-side [1]: synergistic effect was observed
repellency EC50 +TFA(S) ([1]; TFA (50 μg/cm^2) applied side-by-side on halves of the filter): 8.1 μg/cm^2
repellency EC50 (+TFA) [1]: 26 μg/cm^2
synergism of repellency with citronella [1]: did not synergize
repellency EC50 [1]: 39 μg/cm^2
synergist ratio SR (EC50 compound alone/EC50 compound+TFA) ([1]; repellency): 1.5
fold decrease of EC50 by TFA side-by-side ([1]; repellency, TFA 50 μg/cm^2 side-by-side treatment): ~5 fold

CCCCCOC(=O)[C@@H]1[C@@H](C=C(Cl)Cl)C1(C)C [GMR 120, nPentyl (1R,3S)-3-(2,2-dichlorovinyl)-2,2-dimethylcyclopropane-1-carboxylate]
EC50 (95% CL), repellency of TFA esters [1]: 10 (7-15) μg/cm^2

CC1(C)[C@H](C=C(Cl)Cl)[C@H]1C(=O)OC1CCCC1 [GMR 124, Cyclopentyl (1R,3S)-3-(2,2-dichlorovinyl)-2,2-dimethylcyclopropane-1-carboxylate]
EC50 (95% CL), repellency of TFA esters [1]: 11 (8-15) μg/cm^2

CC1(C)[C@H](C=C(Cl)Cl)[C@H]1C(=O)OC1CCC1 [GMR 125, Cyclobutyl (1R,3S)-3-(2,2-dichlorovinyl)-2,2-dimethylcyclopropane-1-carboxylate]
EC50 (95% CL), repellency of TFA esters [1]: 17 (11-27) μg/cm^2

CC1(C)[C@H](C=C(Cl)Cl)[C@H]1C(=O)OC1CC1 [GMR 126, Cyclopropyl (1R,3S)-3-(2,2-dichlorovinyl)-2,2-dimethylcyclopropane-1-carboxylate]
EC50 (95% CL), repellency of TFA esters [1]: 8.5 (5-13) μg/cm^2
repellency EC50 (+TFA) [1]: 0.35 μg/cm^2
repellency EC50 [1]: 8.5 μg/cm^2
synergist ratio SR (EC50 compound alone/EC50 compound+TFA) ([1]; repellency): 24

CCCCN(CCC(=O)OCC)C(C)=O [IR3535, ethyl butylacetylaminopropionate]
MED values Female 10 (female Ae. aegypti): 0.047 mg/cm^2
MED values Female 9 (female Ae. aegypti): 0.047 mg/cm^2
MED Mean (female Ae. aegypti): 0.063 mg/cm^2
MED values Male 4 (female Ae. aegypti): 0.094 mg/cm^2
effect of TFA on repellency, applied as mixture [1]: no statistically significant effect

OCc1c(F)c(F)cc(F)c1F [TF-OH, transfluthrin alcohol]
spatial repellency in screening [1]: significant repellency
repellency EC50 (+TFA) [1]: 41 μg/cm^2
repellency EC50 [1]: 80 μg/cm^2
synergist ratio SR (EC50 compound alone/EC50 compound+TFA) ([1]; repellency): about 2

CC1(C)C(C=C(Cl)Cl)C1C(=O)O (stereo not shown) [TFA, transfluthrin acid]
MED values Female 10 (female Ae. aegypti): 0.094 mg/cm^2
MED values Female 9 (female Ae. aegypti): 0.187 mg/cm^2
MED Mean (female Ae. aegypti): 0.156 mg/cm^2
MED values Male 4 (female Ae. aegypti): 0.187 mg/cm^2
repellency of TFA by itself ([1]; TFA alone, 50 μg/cm^2 and higher): no repellent activity by itself; also recorded: no effect; also recorded: inactive by itself
synergism of repellency with citronella [1]: strong positive response; also recorded: Synergistic interactions were discovered

CCc1ccc(NC(=O)CSc2nnc(-c3cccnc3)n2CC)cc1 [VUAA-1, 2-(4-Ethyl-5-(pyridin-3-yl)-4H-1,2,4-triazol-3-ylthio)-N-(4-ethylphenyl)acetamide, reference compound]
effect of TFA on repellency, applied side-by-side [1]: synergism disappeared
repellency EC50 (+TFA) [1]: 30 μg/cm^2
repellency EC50 +citronella ([1]; co-applied citronella at its EC20 (20 μg/cm^2)): 34 μg/cm^2
repellency at highest concentration tested (words) [1]: inactive; also recorded: repellency was not observed
repellency EC50 [1]: >2000 μg/cm^2
synergist ratio SR (EC50 compound alone/EC50 compound+TFA) ([1]; repellency): >67

O=Cc1ccccc1 [benzaldehyde, reference compound]
repellency EC50 (+TFA) [1]: 15 μg/cm^2
repellency EC50 [1]: 118 μg/cm^2
synergist ratio SR (EC50 compound alone/EC50 compound+TFA) ([1]; repellency): 8

Cc1c(COC(=O)C2C(/C=C(/Cl)C(F)(F)F)C2(C)C)cccc1-c1ccccc1 (stereo not shown) [bifenthrin, Bifenthrin, reference compound]
spatial repellency in screening [1]: some repellency at high exposure

CC1(C)[C@H](C(=O)O[C@H](C#N)c2cccc(Oc3ccccc3)c2)[C@@H]1C=C(Br)Br [deltamethrin, Deltamethrin, reference compound]
spatial repellency in screening [1]: inactive as vapor phase repellents

Cc1cccc(C(N)=O)c1 [m-toluamide]
15 min repellency ratio ([1]; 10 μg/cm^2): 0.50
30 min repellency ratio ([1]; 10 μg/cm^2): 0.50
1 hr repellency ratio ([1]; 10 μg/cm^2): 0.38
15 min repellency ratio ([1]; 100 μg/cm^2): 0.19
30 min repellency ratio ([1]; 100 μg/cm^2): 0.31
1 hr repellency ratio ([1]; 100 μg/cm^2): 0.06

CC/C=C\C[C@H]1C(=O)CC[C@@H]1CC(=O)OC [methyl jasmonate, Methyl (1R,2R)-3-Oxo-2-(2Z)-2-pentenyl-cyclopentaneacetate]
MED values Female 10 (female Ae. aegypti): 0.75 mg/cm^2
MED values Female 9 (female Ae. aegypti): 0.75 mg/cm^2
MED Mean (female Ae. aegypti): >1 mg/cm^2
MED values Male 4 (female Ae. aegypti): >1.5 mg/cm^2
repellency EC50 (+TFA) [1]: 6 μg/cm^2
repellency EC50 [1]: 39 μg/cm^2
synergist ratio SR (EC50 compound alone/EC50 compound+TFA) ([1]; repellency): 6.5

COCc1c(F)c(F)c(CO)c(F)c1F [metofluthrin alcohol]
synergism of repellency with GMR 134 ([1]; alcohol 100 μg/cm^2 mixed with GMR 134 at 2 μg/cm^2): significantly synergized

CC1(C)C(C=C(Cl)Cl)C1C(=O)OCc1cccc(Oc2ccccc2)c1 (stereo not drawn) [permethrin, 3-phenoxybenzyl 3-(β,β-dichlorovinyl)-2,2-dimethylcyclopropanecarboxylate, reference compound]
MED values Female 10 (female Ae. aegypti): 0.187 mg/cm^2
MED values Female 9 (female Ae. aegypti): 0.187 mg/cm^2
MED Mean (female Ae. aegypti): 0.187 mg/cm^2
MED values Male 4 (female Ae. aegypti): 0.187 mg/cm^2
spatial repellency in screening [1]: inactive as vapor phase repellents
effect of TFA on repellency, applied as mixture [1]: some spatial repellency
repellency EC50 (+TFA) [1]: 9.5 μg/cm^2
repellency at highest concentration tested (words) [1]: repellency was not observed
repellency at highest concentration tested (words) ([1]; listed as Permethrin): inactive
repellency EC50 [1]: >1000 μg/cm^2
synergist ratio SR (EC50 compound alone/EC50 compound+TFA) ([1]; repellency): >105

benzyloxybenzaldehyde
15 min repellency ratio ([1]; 10 μg/cm^2): 0.69
30 min repellency ratio ([1]; 10 μg/cm^2): 0.69
1 hr repellency ratio ([1]; 10 μg/cm^2): 0.63
15 min repellency ratio ([1]; 100 μg/cm^2): 0.69
30 min repellency ratio ([1]; 100 μg/cm^2): 0.81
1 hr repellency ratio ([1]; 100 μg/cm^2): 0.44
